Data from US20100004171A1, “Therapeutic Methods for Neuropathic Pain” (priority 2006, published 2010).

Experiments:
[1] = system: tactile allodynia in allodynic rats; experiment: Tactile allodynia test (von Frey filaments, paw withdrawal threshold) in CCI (Bennett model) rats; type: in vivo, rat
From the text: Bennett Model: In this model, approximately 0.8 cm of the left sciatic nerve was exposed and freed with sharpened scissors at middle-thigh level as described by Bennett and Xie.^[76] Four ligatures were placed loosely around the sciatic nerve with 4-0 chromic catgut, with 1 mm space between the ties, which compresses the nerve but epineural blood circulation is preserved. The tissue and skin were closed in layers. […] Most allodynia was seen during the time period of 7-14 days after the surgery.
Intrathecal catheter installation: A PE10 catheter, stretched to a somewhat thinner diameter in the distal part, was introduced into the spinal canal (subarachnoid space) via a 21 G (gauge) cannula between the L5 and L6 lamina and advanced to the lumbar enlargement in rats. The proximal part was tunneled under the skin and led out on the upper dorsal region. The location of the catheter was verified by the injection of 6 μl (50 mg/ml) xylocalne, such that a transient, flaccid paralysis of the legs was produced, and by X-ray after administration of 10 μl iodine contrast medium (Astra, Sweden). The catheter could be kept for up to two weeks in animals.^[79]
The maximum volume injected at any one time was 10 μl.^[79]
Tactile allodynia test: In a transparent glass chamber (20×20 cm) with a mesh net floor, each animal was subjected to the tactile allodynia test. A positive response is when an innocuous tactile stimulus induces a brief paw withdrawal away from the stimulation, similar to a paw withdrawal due to heat. A set of von Frey filaments from 0.01 to 28 g (Stoelting Co., Wood Dale, Ill.) were applied to the mid-paw of the allodynic rats at 1 gram, and then progressing up or down. The filament was pressed against the plantar surface for 1 to 2 seconds until it bent. Subsequent applications were made with a higher or lower von Frey filament depending on the animal response. The testing always began with normal paws. If a filament induced a brief paw withdrawal of a paw without bending in three out of five tests, the size of the filament was recorded as eliciting a positive withdrawal threshold.^[80] Allodynia was considered to be present when a withdrawal threshold was evoked by a filament corresponding to 8 grams or less.
In rats with tactile allodynia (a withdrawal threshold with a filament below 8 g), an intrathecal catheter (PE 10) was installed and linked to an osmotic pump (Alzet) in a 37° C. water bath. Following a bolus injection of SCP-1 (30 nmol/kg, 10 μl), agrin siRNA (100 nM) was intrathecally administered continuously by the pump at a rate of 5 μl/1 hour for 4 hr. The animals were subjected to von Frey filament test every 15 min for 4 hr to determine whether the effects of SCP-1 on allodynia suppression are blocked by agrin siRNA. A control siRNA (nFsiRNA) was applied in the same way. The behavioral data was analyzed for agrin effects. Immediately after behavioral experiments, the animals were sacrificed and subjected to protein extraction of lumbar spinal cord, followed by Western-blot analysis as described above.
A blind test was designed for intrathecal drug evaluations. Five days after CCI, rats were subjected to tactile allodynia tests with von Frey filaments. If a filament corresponding to 8 grams or less evoked a withdrawal response on the rat paw (at least 3 responses out of 5 stimuli), the value was designated as the allodynia threshold. […] Either a drug (100 nmol in 10 μl saline) or vehicle (only 10 μl saline) was pre-warmed and intrathecally injected into the allodynic rats. Then the rats were assayed for changes in allodynic and hyperalgesic behavior, agrin gene expression, and agrin protein changes. In addition, distribution and amount of agrin in the dorsal horn were visualized using immunostaining of L5 as reported above in Example 7.

[2] = system: thermal hyperalgesia in allodynic rats; experiment: Thermal hyperalgesia test (paw withdrawal latency) in CCI (Bennett) rats; type: in vivo, rat

## O=C(CN1C(=O)c2ccccc2S1(=O)=O)Nc1ccc(O)cc1 [SCP-1]
[1]; Example 9: SCP-1 alone
  time to normalized withdrawal threshold: about one hour after injection
[1]; Example 9: injected 7 days after CCI, SCP-1 alone, up to 4 h
  effect on withdrawal threshold: normalized the withdrawal threshold
[1]; intrathecal 100 nmol in 10 μl
  duration of effect on withdrawal threshold: up to 8 hr
  time to normal withdrawal threshold: about an hour after injection
[1]; intrathecal 100 nmol in 10 μl in allodynic rats, day 7 after injury, up to 8 hr
  effect on paw-withdrawal threshold: raised the withdrawal threshold to normal values
[1]; intrathecal 100 nmol, day 7 after injury
  effect on tactile allodynia: suppressed the tactile allodynia
[2]; intrathecal 100 nmol in 10 μl, CCI (Bennett) rat model
  increase in paw-withdrawal latency (thermal hyperalgesia): 80%
[2]; intrathecal 100 nmol, 120 min
  effect on paw-withdrawal latency at 120 min post injection: still apparent
